Experimental data published in paper PMC3034713, “Targeting Vascular NADPH Oxidase 1 Blocks Tumor Angiogenesis through a PPARα Mediated Mechanism” (PLoS ONE, 2011).

Tests used:
xanthine oxidase = xanthine oxidase (Homo sapiens, UniProt P47989); test: Xanthine oxidase inhibition, concentration-response; format: biochemical
NOX2 = target: T1, NOX2 (Homo sapiens, UniProt P04839); test: NOX inhibition in cell free assay, membranes from NOX2 expressing PMN cells (Amplex Red ROS); format: biochemical; conditions: cell-free, membranes from NOX2 expressing PMN cells
T1 construct: Membranes from NOX2 expressing PMN cells; endogenous in cells; host or cells: PMN cells
T1 sequence (P04839 2-570 limits assumed): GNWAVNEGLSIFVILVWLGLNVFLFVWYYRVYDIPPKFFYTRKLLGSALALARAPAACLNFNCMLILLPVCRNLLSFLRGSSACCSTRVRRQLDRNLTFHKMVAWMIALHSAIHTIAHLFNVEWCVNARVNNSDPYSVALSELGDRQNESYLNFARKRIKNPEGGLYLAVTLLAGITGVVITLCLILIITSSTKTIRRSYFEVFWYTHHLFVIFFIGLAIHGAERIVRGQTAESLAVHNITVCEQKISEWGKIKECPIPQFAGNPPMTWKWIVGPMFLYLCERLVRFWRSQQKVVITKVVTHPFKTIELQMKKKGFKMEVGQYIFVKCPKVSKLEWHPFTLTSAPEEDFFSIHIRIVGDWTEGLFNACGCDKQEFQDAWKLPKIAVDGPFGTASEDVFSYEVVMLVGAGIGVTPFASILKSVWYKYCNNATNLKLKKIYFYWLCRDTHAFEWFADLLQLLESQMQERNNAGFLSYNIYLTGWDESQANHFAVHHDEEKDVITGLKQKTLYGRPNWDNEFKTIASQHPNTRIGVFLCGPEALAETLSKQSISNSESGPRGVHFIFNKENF
T1 sequence (P13498 2-195 partner limits assumed): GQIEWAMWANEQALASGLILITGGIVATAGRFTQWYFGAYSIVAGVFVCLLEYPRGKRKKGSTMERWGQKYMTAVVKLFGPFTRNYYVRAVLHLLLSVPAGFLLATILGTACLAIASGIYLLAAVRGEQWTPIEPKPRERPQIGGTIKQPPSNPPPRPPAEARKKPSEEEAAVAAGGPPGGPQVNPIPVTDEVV
Experimental: (§1) Membranes from NOX2 expressing PMN cells or from cells overexpressing NOX1 or NOX4 were prepared as previously described. After resuspension in sonication buffer (11% sucrose, 120 mM NaCl, 1 mM EGTA in PBS, pH 7.4 for NOX4-expressing cells) or in relax buffer (10 mM Pipes, 3 mM NaCl, 3.5 mM MgCl2, 0.1 M KCl, pH 7.4), cells were broken by sonication and centrifuged (200 g, 10 min). The supernatant was loaded onto a 17/40% (w/v) discontinuous sucrose gradient and centrifuged (150,000 g for 30 min). Membrane fractions were collected and stored at −80°C. ROS production measurements of membranes expressing different NOX subunits was determined as previously described using the Amplex Red method (Invitrogen).

NOX1 = target: T2, NOX1 (Homo sapiens, UniProt Q9Y5S8); test: NOX inhibition in cell free assay, membranes from cells overexpressing NOX1 (Amplex Red ROS); format: biochemical; conditions: cell-free, membranes from NOX1 over-expressing cells
T2 construct: expressed in transfected cells
T2 sequence (Q9Y5S8 1-564): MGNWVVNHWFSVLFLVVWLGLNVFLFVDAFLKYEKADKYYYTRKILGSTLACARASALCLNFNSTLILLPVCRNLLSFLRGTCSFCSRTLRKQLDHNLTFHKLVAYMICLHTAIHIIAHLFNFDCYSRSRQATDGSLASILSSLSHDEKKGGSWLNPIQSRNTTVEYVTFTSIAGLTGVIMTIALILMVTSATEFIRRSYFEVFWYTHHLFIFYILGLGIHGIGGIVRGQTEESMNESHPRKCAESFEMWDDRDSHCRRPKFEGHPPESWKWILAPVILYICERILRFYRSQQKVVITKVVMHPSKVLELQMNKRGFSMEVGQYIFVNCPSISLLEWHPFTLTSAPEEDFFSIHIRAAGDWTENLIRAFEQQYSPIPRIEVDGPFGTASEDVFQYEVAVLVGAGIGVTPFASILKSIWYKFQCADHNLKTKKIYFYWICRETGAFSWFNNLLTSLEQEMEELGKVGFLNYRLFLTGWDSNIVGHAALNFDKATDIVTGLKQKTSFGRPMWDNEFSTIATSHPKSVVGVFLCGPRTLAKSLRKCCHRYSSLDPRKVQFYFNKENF
T2 sequence (P13498 2-195 partner limits assumed): T1 sequence (P13498 2-195 partner limits assumed)
Experimental: as §1

NOX4 = target: T3, NOX4 (Homo sapiens, UniProt Q9NPH5); test: NOX inhibition in cell free assay, membranes from cells overexpressing NOX4 (Amplex Red ROS); format: biochemical; conditions: cell-free, membranes from NOX4 over-expressing cells
T3 construct: expressed in transfected cells
Experimental: as §1

MLEC [1] = test: Endothelial cell sprouting assay (tube-like structure formation, 3D culture); format: cell-based, mouse; conditions: NOX1-deficient MLEC, 10 µM, compared to untreated NOX1-deficient cells
Experimental: Sprouting assay was performed as described previously. Briefly, endothelial cells were plated in 96 well plates at 8,000 cells per well in a 3D fibrin gel. Above the gel, 10% FCS containing DMEM was complemented with 200 KIU/ml of Aprotinin (Sigma). Length of branches was evaluated using the Metamorph program. Results are expressed in mm of skeleton length/number of cells.

tEnd siRNA NOX1 = test: Quantitative real-time PCR of target genes in NOX1-silenced endothelial cell line; format: cell-based, mouse
Experimental: Total RNA from treated cells was extracted using RNeasy minikit (Qiagen). Total RNA was reverse-transcribed with the Superscript III first strand RT-PCR kit (Invitrogen). Quantitative real-time PCR was performed using SybrGreen master mix (Applied Biosystems) on Step one plus Real-time PCR machine (Applied Biosystems). Primer sequences are listed in the Materials and Methods S1.
For mouse cells, siRNAs were nucleofected using the Amaxa technology (Lonza). Gene silencing was assessed 48 hours after nucleofection by quantitative RT-PCR. For HUVEC, shRNA vectors (SABiosciences) were nucleofected using Amaxa. Gene silencing was assessed 48 hours after nucleofection by quantitative RT-PCR.

MLEC [2] = test: Wound healing assay (endothelial cell migration); format: cell-based, mouse; conditions: NOX1-deficient MLEC, 10 µM, compared to untreated NOX1-deficient cells
Experimental: Wound healing assay was performed as described previously. Briefly, endothelial cells were plated in Matrigel (Becton Dickinson) precoated 96 wells plates. One day after plating the cell monolayer was scratched to make a regular wound. Cells were allowed to migrate overnight. Migration area was then measured and calculated using the Metamorph program (MDS Analytical Technologies).

[3] = test system: NOX1-silenced endothelial cell lines; test: p65 NF-κB nuclear translocation after VEGF or bFGF stimulation (Western blot, immunofluorescence); format: cell-based, mouse; conditions: 10 µM before stimulation with VEGF and bFGF
Experimental: After stimulation, nuclear and cytoplasmic proteins of endothelial cells were extracted according to Tauzin et al.. Briefly, cells were incubated in TKM buffer (50 mM Tris-HCl pH 7.4, 25 mM KCl, 5 mM MgCl2 and 1 mM EGTA) containing 1% Triton and protease inhibitor cocktail CLAP [10 µg/ml chymostatin, leupeptin, antipain and pepstatin A (Sigma) for 30 minutes on ice, sonicated for 2 minutes and centrifuged at 5000 g for 30 minutes. The pellet and the supernatant were separated and solubilized in sample buffer.
Cells were stimulated for the indicated time and then lysed in TNT buffer (50 mM Tris, 150 mM NaCl, 0.5% Triton X-100) complemented with protease inhibitor cocktail CLAP and phosphatase inhibitor cocktail [25 mM NaF, 20 mM b-Glycerophosphate, 5 mM HEPES, 2.5 mM EDTA, 0.5 mM Orthovanadate]. Membranes were blocked in PBS containing 0.5% BSA and hybridized with different antibodies.

[4] = tEnd siRNA NOX1 + GW 6471, compared to control cells

Chain of xanthine oxidase (P47989 whole entry, species assumed): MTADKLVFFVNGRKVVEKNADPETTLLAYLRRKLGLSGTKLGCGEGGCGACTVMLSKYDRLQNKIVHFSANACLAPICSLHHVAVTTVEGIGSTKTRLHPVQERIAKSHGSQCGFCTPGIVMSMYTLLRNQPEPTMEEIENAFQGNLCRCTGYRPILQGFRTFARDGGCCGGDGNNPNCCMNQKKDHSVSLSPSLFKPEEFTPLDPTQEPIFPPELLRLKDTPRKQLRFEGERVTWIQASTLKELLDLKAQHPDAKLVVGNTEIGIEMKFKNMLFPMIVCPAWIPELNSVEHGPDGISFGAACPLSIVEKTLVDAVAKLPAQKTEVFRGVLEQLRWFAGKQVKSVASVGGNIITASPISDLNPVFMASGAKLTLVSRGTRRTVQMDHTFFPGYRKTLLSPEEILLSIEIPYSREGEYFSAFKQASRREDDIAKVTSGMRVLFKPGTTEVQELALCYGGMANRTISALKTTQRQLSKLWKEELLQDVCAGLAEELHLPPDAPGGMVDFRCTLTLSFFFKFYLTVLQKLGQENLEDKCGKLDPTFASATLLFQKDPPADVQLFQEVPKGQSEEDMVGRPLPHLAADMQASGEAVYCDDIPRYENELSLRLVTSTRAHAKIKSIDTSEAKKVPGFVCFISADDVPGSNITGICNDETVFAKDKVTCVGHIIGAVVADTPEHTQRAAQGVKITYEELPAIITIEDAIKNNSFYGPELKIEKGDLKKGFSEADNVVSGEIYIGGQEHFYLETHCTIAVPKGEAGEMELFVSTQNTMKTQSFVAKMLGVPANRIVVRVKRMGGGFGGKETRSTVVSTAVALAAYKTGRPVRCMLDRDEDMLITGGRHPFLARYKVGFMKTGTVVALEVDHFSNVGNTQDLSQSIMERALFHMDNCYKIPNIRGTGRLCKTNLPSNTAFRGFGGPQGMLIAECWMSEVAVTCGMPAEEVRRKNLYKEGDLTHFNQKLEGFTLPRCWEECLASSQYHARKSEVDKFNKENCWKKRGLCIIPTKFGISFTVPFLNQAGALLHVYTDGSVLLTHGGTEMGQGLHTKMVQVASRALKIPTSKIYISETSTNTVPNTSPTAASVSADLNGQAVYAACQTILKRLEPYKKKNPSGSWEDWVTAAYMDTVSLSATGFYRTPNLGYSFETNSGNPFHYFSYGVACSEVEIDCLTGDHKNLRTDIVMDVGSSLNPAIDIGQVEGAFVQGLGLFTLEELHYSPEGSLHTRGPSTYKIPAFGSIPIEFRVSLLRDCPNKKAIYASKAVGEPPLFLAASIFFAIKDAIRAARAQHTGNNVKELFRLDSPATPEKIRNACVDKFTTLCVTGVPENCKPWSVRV
T3 sequence (Q9NPH5 whole entry, species assumed, one chain of several): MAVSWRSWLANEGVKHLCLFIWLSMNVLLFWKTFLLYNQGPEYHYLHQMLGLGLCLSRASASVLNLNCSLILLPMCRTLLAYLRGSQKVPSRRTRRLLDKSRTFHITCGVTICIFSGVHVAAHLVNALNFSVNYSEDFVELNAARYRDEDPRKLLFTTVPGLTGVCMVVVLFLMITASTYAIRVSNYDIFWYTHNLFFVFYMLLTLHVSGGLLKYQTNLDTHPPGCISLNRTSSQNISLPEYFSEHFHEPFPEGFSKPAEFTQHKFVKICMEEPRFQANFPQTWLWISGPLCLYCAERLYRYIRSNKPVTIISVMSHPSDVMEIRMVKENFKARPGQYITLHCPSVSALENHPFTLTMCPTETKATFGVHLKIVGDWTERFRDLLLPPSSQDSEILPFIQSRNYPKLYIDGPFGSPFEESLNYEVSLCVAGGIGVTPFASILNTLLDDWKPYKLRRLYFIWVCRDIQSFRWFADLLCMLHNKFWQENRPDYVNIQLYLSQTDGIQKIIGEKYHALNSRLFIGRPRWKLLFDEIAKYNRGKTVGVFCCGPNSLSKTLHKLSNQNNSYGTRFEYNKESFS

Row | Compound | Ki (xanthine oxidase) | Ki (NOX2) | Ki (NOX1) | Ki (NOX4) | tube formation of NOX1-deficient MLEC (MLEC [1]) | PPARα up regulation in NOX1-silenced cells (tEnd siRNA NOX1; NOX1-silenced cells incubated with antagonist, data not shown) | Catalase expression, fold increase or decrease (tEnd siRNA NOX1; [4]) | GPX3 expression, fold increase or decrease (tEnd siRNA NOX1; [4]) | MMP-2 expression, fold increase or decrease (tEnd siRNA NOX1; [4]) | MMP-9 expression, fold increase or decrease (tEnd siRNA NOX1; [4]) | VCAM-1 expression, fold increase or decrease (tEnd siRNA NOX1; [4]) | VE-cadherin expression, fold increase or decrease (tEnd siRNA NOX1; [4]) | VEGF expression, fold increase or decrease (tEnd siRNA NOX1; [4]) | bFGF expression, fold increase or decrease (tEnd siRNA NOX1; [4]) | uPAR expression, fold increase or decrease (tEnd siRNA NOX1; [4]) | cell migration of NOX1-deficient MLEC (MLEC [2]) | deficient nuclear translocation of NF-kB in NOX1-silenced cells [3]
1 | c1ccc([I+]c2ccccc2)cc1 [DPI, Diphenyliodonium, reference compound] | 50 nM | 70 nM | 70 ± 10 nM | 70 nM | – | – | – | – | – | – | – | – | – | – | – | – | –
2 | CCC(=O)NC[C@H](Cc1ccc(OCCc2nc(-c3ccccc3)oc2C)cc1)N/C(C)=C\C(=O)c1ccc(C(F)(F)F)cc1 [GW6471] | – | – | – | – | restored | no longer observed | 0.92±0.012 fold | 0.70±0.01 fold | 2.13±0.24 fold | 0.47±0.07 fold | 0.57±0.18 fold | 0.9±0.2 fold | 0.68±0.04 fold | 0.64±0.25 fold | 1.34±0.6 fold | restored | no longer observed
